This is an account of results in patent publication US6355409B1, “Tagatose as a cytoprotective supplement for the removal and/or storage of organs to reduce reperfusion injury” (Biospherics Incorporated, priority 2000, dated 2002).

Structures are written as SMILES.

The conditions of series [1]: high concentrations; cited from earlier work.
The test system of the next series is organ, e.g., a liver. Briefly: Removal and/or storage of organ in tagatose-containing organ storage solution (Examples 1-3). Details: species or system human. Particulars: tagatose solution containing about 0.36% by weight of tagatose, with nutrients and electrolytes. The text has this:
After the organ, e.g., a liver is accessed by surgery on a human subject, three liters of chilled tagatose solution containing about 0.36% by weight of tagatose are used to flush the blood from it and to cool the organ while still on the body. The tagatose solution contains the amounts of nutrients and electrolytes common to present day storage solutions, such as Viaspan. […] The organ is then removed and placed into a chilled sterile container, holding more of the tagatose solution, for refrigerated storage until the transplant occurs. The ischemia time is shorter in this procedure than in Example 1. The donor organ is removed and perfused with tagatose solution containing about 0.36% by weight of tagatose that, again, contains the requisite nutrients and electrolytes. The organ is then placed into a sterile container that contains more of the same tagatose solution. That sterile container is placed into two more sterile containers and is then placed on ice for immediate transit to the organ recipient. The organ is removed as described in Example 1. It is flushed and perfused with tagatose solution, containing about 0.36% by weight of tagatose, and containing the requisite nutrients and electrolytes. The organ is placed in a sterile container with more of the same tagatose solution. Two protocols may be used for storage a. […]

Another series relates to liver cells. The experiment in a line: Exposure of organ cells to tagatose, ATP level. Particulars: exposure of organ cells such as liver cells to tagatose. It counts as cell-based.

Take `CC(=O)N(O)CCCCCNC(=O)CCC(=O)N(O)CCCCCNC(=O)CCC(=O)N(O)CCCCCN` [deferoxamine]: in series [1], the toxicity entry is reported as “toxic at high concentrations”.
For `O=C(CO)[C@@H](O)[C@@H](O)[C@H](O)CO` [tagatose], the “reperfusion injury of the organ” value in the series with organ, e.g., a liver was “reduces reperfusion injury”. Besides, the “ATP in organ cells” value with liver cells is given as “massively decreases ATP”.
